Values of other authors, collected in paper PMC6724535 (Journal of molecular biology, 2019).

How the values were obtained:
[1] = tested on: E. coli expressing TetK, TetA, TetB, and TetM
E. coli expressing TetX = E. coli expressing TetX vs wild-type E. coli
[2] = tested on: E. coli expressing AACs, ANTs, APHs and 16S rRNA ribosomal methyltransferases

CN(C)[C@@H]1C(O)=C(C(N)=O)C(=O)[C@@]2(O)C(O)=C3C(=O)c4c(O)c(NC(=O)CN5CCCC5)cc(F)c4C[C@H]3C[C@@H]12 [eravacycline]
antibacterial activity [1]: maintained nearly full antibacterial activity
increase in minimal inhibitory concentration (MIC) relative to wild-type E. coli (E. coli expressing TetX): 64 fold

CN[C@@H]1[C@@H](O)[C@@H](O[C@@H]2[C@@H](O)[C@H](O[C@H]3OC(CNCCO)=CC[C@H]3N)[C@@H](N)C[C@H]2NC(=O)[C@@H](O)CCN)OC[C@]1(C)O [plazomicin]
activity against E. coli expressing aminoglycoside inactivating enzymes ([2]; majority of canonical AACs, ANTs, and APHs): maintain activity
antibacterial activity with ribosomal methyltransferases ([2]; some plasmid-encoded 16S rRNA ribosomal methyltransferases): completely abolish

jessenipeptin
amoebicidal activity IC50 (D. discoideum): 4 µg/mL
